Test results taken from patent US20140303092A1 (CHIMERIX, INC., priority 2011, published 2014).

Test: Study HDP-CDV-201: safety and tolerability (adverse events, laboratory abnormalities, discontinuations)
Assay type: in vivo, human (adult allogeneic HSCT recipients)
Conditions: Cohort 3, 200 mg QW
Protocol: Clinical Studies of HDP-CDV were performed and described in detail in the following Examples. For example, HDP-CDV-201 is a placebo-controlled, dose-escalating trial in HSCT CMV (R+) recipients, evaluating the ability of HDP-CDV to prevent or control CMV infection was carried out. Five cohorts were established in which participants or subjects received either placebo or the HDP-CDV orally, in doses ranging from 40 mg weekly (QW) to 200 mg twice weekly (BIW). Subjects who were post-HSCT were enrolled at the time of engraftment and randomized to HDP-CDV or placebo (3 to 1 ratio) and received blinded therapy until approximately 100 day post-transplantation. HDP-CDV doses were 40 mg QW, 100 mg QW, 200 mg QW, 200 mg BIW and 100 mg BIW. Escalation to the next dose was decided by the data monitoring committee after review of the safety data from the previous Cohort. Subjects who developed CMV disease or CMV infection requiring pre-emptive therapy with local standard of care were discontinued from blinded therapy and followed for 4 weeks. Subjects who completed treatment with blinded therapy were followed for 8 weeks post-therapy.
Data from Study HDP-CDV-201 also provided characterization of the safety and tolerability profile of HDP-CDV when administered for the prevention or control of CMV infection in high risk (R^+) post-HSCT adult subjects.
The Safety population (SAFETY) included all randomized subjects who took at least one dose of study treatment. This population was used to summarize safety outcomes based on the treatment actually received, in cases where a subject was treated contrary to the randomization schedule.
The safety and tolerability profile of HDP-CDV, including subject demographics and Baseline characteristics; the AE profile; and laboratory abnormalities of interest were analyzed in the cohorts followed in this investigation.
Subjects completing the treatment period received a full course of study medication; those completing the entire study attended visits through 8 weeks of follow up. Subjects who discontinued treatment may have done so for protocol specified reasons (e.g. development of clinically significant CMV infection requiring preemptive treatment with excluded anti-CMV medications) or for other reasons (e.g., withdrawal, adverse events, loss to follow-up). The disposition of subjects in Study HDP-CDV-201 during the double-blind, placebo-controlled treatment period (through Week 11) is listed by dosing Cohort in TABLE 23.
Adverse events were examined by severity to ensure that all safety signals were identified in this study population. Because of the frequency of events in HSCT recipients, particular attention was given to evaluation of Grade 3 […], 4 (severe), and 5 (fatal) adverse events.
Only those preferred terms for which at least one Grade 3 or higher event was experienced in any treatment group are listed. Cytomegalovirus-related AEs are excluded from this analysis.
HDP-CDV is a lipid conjugate of CDV. Because CDV is known to have adverse effects on renal function and bone marrow, decreased GFR and persistent neutropenia were identified as AEs of special interest. Key renal and hematological (TABLE 30) laboratory parameters were measured and listed below by Study HDP-CDV-201 treatment groups. TABLE 30 includes abnormal levels of serum creatinine, neutrophils, platelets, WBCs, and hemoglobin and includes data at Screening and during the treatment period.
A common metric for unit based dosing of medications is by weight (mg/kg). When the distribution of weights was examined for all subjects participating in the study, the median was 78 kg and the lower 25th percentile weight was approximately 65 kg, which translates to a cut-off of ˜3 mg/kg for a 200 mg total weekly dose. Based upon this approach, a cut-off of 3 mg/kg was used to assess the frequency of diarrhea and associated GI AEs reported for the subjects in Cohorts 3 or 4a (TABLE 40).

CCCCCCCCCCCCCCCCOCCCOP(=O)(O)COC(CO)Cn1ccc(N)nc1=O (stereo not shown) [HDP-CDV]
3 (7.9%): Total Bilirubin (any time during therapy) >1.5-3 × ULN, subjects
13 (33.3%) n (%): TEAE Acute GVHD (N = 39) | TEAE Diarrhoea (N = 39)
2 (5.1%): Dyspepsia leading to study drug withdrawal (N = 39)
6 (15.4%): TEAE Vomiting Overall Frequency, subjects
11 (28.2%) n (%): TEAE Nausea (N = 39)
0: Total Bilirubin (Screening) >1-[…] ULN, subjects | Total Bilirubin (Screening) >1.5-3 × ULN, subjects | Total Bilirubin (Screening) >3-10 × ULN, subjects | Total Bilirubin (Screening) >10 × ULN, subjects | Total Bilirubin (any time during therapy) >3-10 × ULN, subjects | Total Bilirubin (any time during therapy) >10 × ULN, subjects
1 (2.6%): Total Bilirubin (any time during therapy) >1-[…] ULN, subjects | Diarrhoea leading to study drug withdrawal (N = 39)
5 (12.8%) n (%): TEAE Abdominal pain (N = 39) | TEAE Fatigue (N = 39) | TEAE Hypokalaemia (N = 39) | TEAE Insomnia (N = 39)
15 (38.5%): All AEs leading to withdrawal (N = 39)
0 n (%): TEAE Acute Myeloid Leukemia recurrent (N = 39) | TEAE Acute Renal Failure (N = 39) | TEAE Blood lactate dehydrogenase increased (N = 39) | TEAE Gamma-glutamyltransferase increased (N = 39) | TEAE Generalized oedema (N = 39) | TEAE Hypocalcaemia (N = 39) | TEAE Pneumonia (N = 39) | TEAE Renal Failure (N = 39) | TEAE Thrombocytopenia (N = 39)
7 (17.9%) n (%): TEAE Cytomegalovirus viremia (N = 39) | TEAE Hyponatraemia (N = 39) | TEAE Pyrexia (N = 39)
4 (10.3%) n (%): TEAE Neutropenia (N = 39)
2 (5.1%) n (%): TEAE ALT increased (N = 39) | TEAE Back Pain (N = 39) | TEAE Dysgeusia (N = 39) | TEAE GI Reflux Disease (N = 39) | TEAE Increased leukocytosis (N = 39) | TEAE Liver function test abnormal (N = 39) | TEAE Oral Candidiasis (N = 39) | TEAE Tremor (N = 39)
1 (2.6%) n (%): TEAE AST increased (N = 39) | TEAE Abdominal pain, Upper (N = 39) | TEAE Arthralgias (N = 39) | TEAE Hyperglycaemia (N = 39) | TEAE Hyperkalemia (N = 39) | TEAE Malnutrition (N = 39) | TEAE Recurrent flatulence (N = 39) | TEAE Staphylococcal Bacteremia (N = 39)
0%: Abdominal pain leading to study drug withdrawal (N = 39) | Nausea leading to study drug withdrawal (N = 39)
3 (7.7%) n (%): TEAE Anxiety (N = 39) | TEAE Creatinine increased (N = 39) | TEAE Decreased appetite (N = 39) | TEAE Hyperbilirubinaemia (N = 39) | TEAE Oedema peripheral (N = 39)
